Converted amounts (≈) assume the structure as drawn.
Tests used:
[1] = test system: Trichophyton rubrum; assay: Antifungal macrobroth dilution (NCCLS M27-A); settings: read-out: Minimal Inhibitory Concentration
[2] = test system: Aspergillus fumigatus; assay: Antifungal agar dilution
[3] = test system: Mycobacterium tuberculosis; settings: agar dilution
Experimental: (§2) Antimycobacterial Activity of the Basiliskamides: The Basiliskamides were tested for antimycobacierial activity using a standardized agar dilution method (Underlied, C B and Salfinger, S. 1995. In Manual of Clinical Microbiology, Murray, Baron, Pfaller, Tenover, Yolken (Eds.), ASM Press, page 1395-1404).

[4] = test system: Candida albicans; assay: Antifungal macrobroth dilution (NCCLS M27-A); settings: read-out: Minimal Inhibitory Concentration
[5] = test system: Candida albicans; assay: Antifungal agar dilution
[6] = test system: Mycobacterium tuberculosis; assay: microbe, parasite or virus in culture; settings: read-out: Minimal Inhibitory Concentration
Experimental: as §2

[7] = test system: M. avium-intracellulare; type: cell-based, Mycobacterium avium-infracellulare; settings: agar dilution
[8] = test system: Aspergillus fumigatus; assay: Antifungal macrobroth dilution (NCCLS M27-A); settings: read-out: Minimal Inhibitory Concentration
[9] = test system: Trichophyton rubrum; assay: Antifungal agar dilution; settings: read-out: Minimal Inhibitory Concentration
[10] = test system: human tumor cell line; assay: Cytotoxicity testing, cytopathic effect; type: cell-based; design: key: 1: slight change in morphology vs. control; 2: occasional rounding, vacuolization, or granularity; 3: rounding, vacuolization, detachment of 50% of cells; 4: destruction of monolayer
Experimental: (§1) Cytotoxicity Testing of Basiliskamide A: Serial dilutions of basiliskamide A were prepared in cell culture medium and tested for toxicity for normal human fibroblast cells and for human tumor cell line. […] The appearance of the cells was assessed after 48 hours exposure to the compounds. Basiliskamide produced no cytotoxicity for normal human fibroblast cells at concentrations less than 100 μg/ml compared to amphotericin B (ampho) which was toxic at concentrations as low as 25 μg/ml.

[11] = test system: Clinical Isolates of Candida albicans; assay: Macrobroth dilution against 7 clinical isolates
[12] = test system: normal human fibroblast cells; assay: Cytotoxicity testing, cytopathic effect; type: cell-based; design: key to Cytopathic Effect (48 hours): 1: slight change in morphology vs. control; 2: occasional rounding, vacuolization, or granularity; 3: rounding, vacuolization, detachment of 50% of cells; 4: destruction of monolayer; settings: for Cytopathic Effect (48 hours): Human Fibroblast
Experimental: as §1

[13] = read-out: Minimal Inhibitory Concentration

CC[C@@H](C)[C@H](O)[C@H](C)[C@@H](C/C=C/C=C\C(N)=O)OC(=O)/C=C/c1ccccc1 [Basiliskamide B]
MIC [1]: 4 µg/mL (≈ 10.4 µM) | activity relative to YL-03709B-A ([2]; agar dilution, from Table 5): significantly more active | MIC [2, 13]: 5 µg/mL (≈ 13 µM) | activity against M. tuberculosis (in words) [3]: have activity | MIC [4]: ≥ 32 µg/mL | activity relative to YL-03709B-A ([5]; agar dilution, from Table 5): significantly more active | MIC [5, 13]: 3.1 µg/mL (≈ 8.04 µM) | MIC [6]: 50 µg/mL (≈ 130 µM) | MIC ([7]; Mycobacterium, M. avium-intracellulare, read-out: Minimal Inhibitory Concentration): > 100 µg/mL | activity against M. avium-intracellulare (in words) [7]: relatively inactive | MIC [8]: ≥ 32 µg/mL | MIC [9]: 5 µg/mL (≈ 13 µM)

C[C@@H]1[C@H](O)[C@@H](C)/C=C/C=C/C=C/C=C/C=C/C=C/C=C/[C@H](O[C@@H]2O[C@H](C)[C@@H](O)[C@H](N)[C@@H]2O)C[C@@H]2O[C@](O)(C[C@@H](O)C[C@@H](O)[C@H](O)CC[C@@H](O)C[C@@H](O)CC(=O)O[C@H]1C)C[C@H](O)[C@H]2C(=O)O [Amphotericin B]
Cytopathic Effect (48 hours) ([10]; 0.78 μg/ml): 0 | Cytopathic Effect (48 hours) ([10]; 1.57 μg/ml): 0 | Cytopathic Effect (48 hours) ([10]; 3.12 μg/ml): 0 | Cytopathic Effect (48 hours) ([10]; 6.25 μg/ml): 0 | Cytopathic Effect (48 hours) ([10]; 12.5 μg/ml): 0 | Cytopathic Effect (48 hours) ([10]; 25 μg/ml): 1 | Cytopathic Effect (48 hours) ([10]; 50 μg/ml): 3 | Cytopathic Effect (48 hours) ([10]; 100 μg/ml): 4 | Minimal Inhibitory Concentration ([11]; C. albicans clinical isolate 8167): 0.5 µg/mL | Minimal Inhibitory Concentration ([11]; C. albicans clinical isolate 8362): 0.5 µg/mL | Minimal Inhibitory Concentration ([11]; C. albicans clinical isolate 8363): 0.5 µg/mL | Minimal Inhibitory Concentration ([11]; C. albicans clinical isolate 8364): 0.5 µg/mL | Minimal Inhibitory Concentration ([11]; C. albicans clinical isolate 8365): 0.5 µg/mL | Minimal Inhibitory Concentration ([11]; C. albicans clinical isolate 8366): 0.5 µg/mL | Minimal Inhibitory Concentration ([11]; C. albicans clinical isolate 8367): 0.5 µg/mL | Cytopathic Effect (48 hours) ([12]; 0.78 μg/ml): 0 | Cytopathic Effect (48 hours) ([12]; 1.57 μg/ml): 0 | Cytopathic Effect (48 hours) ([12]; 3.12 μg/ml): 0 | Cytopathic Effect (48 hours) ([12]; 6.25 μg/ml): 0 | Cytopathic Effect (48 hours) ([12]; 12.5 μg/ml): 1 | Cytopathic Effect (48 hours) ([12]; 25 μg/ml): 2 | Cytopathic Effect (48 hours) ([12]; 50 μg/ml): 2 | Cytopathic Effect (48 hours) ([12]; 100 μg/ml): 4 | concentrations at which toxic ([12]; normal human fibroblast cells, 48 hours exposure): ≥ 25000 ng/mL
